# Experimental data published in article PMC7562719, “Discovery of a CNS penetrant small molecule SMN2 splicing modulator with improved tolerability for spinal muscular atrophy” (Scientific Reports, 2020).
# What was measured:
# [1] = tested on: SMN2 splicing; assay: qPCR of SMN transcripts in GM03813 cells exposed to TEC-1 and nusinersen; assay type: cell-based, human; conditions: GM03813, 24 h
# Experimental: Transient transfection of GM03813 fibroblasts with nusinersen (final concentration 100 nM) was performed using Lipofectamine 2000. Cells were seeded 6 h prior to transfection at a density of 5 × 10^3 cells/well in 96-well plate. Transfection was performed according to manufacturer’s instructions. Cells were co-incubated either 0.1% DMSO or with TEC-1 at the concentration of 0.03, 0.1, 0.3, 1, and 3 µM for 24 h.
# [2] = target: T1, rat N type calcium channel (Rattus norvegicus, UniProt Q02294); assay: Eurofins selectivity panel: N type calcium channel; assay type: binding
# T1 construct: purchased Eurofins Inc
# [3] = pharmacokinetic study in adult wild type FVB mice, oral; assay type: in vivo; conditions: for Kp / Cmax / MRT / Tmax: male, mouse
# Experimental: TEC-1 was administered at doses of 2, 6, and 20 mg/kg for oral (suspended in 0.5% methyl cellulose aqueous solution) to male FVB mice (aged 8 weeks, 3 mice per a time point). After 0.5–120 h administration, blood and brain samples were collected. Blood samples with heparin were centrifuged for plasma collection. Brain samples were homogenized in saline 20% (w/v). The samples were deproteinized with acetonitrile and following by centrifugation, and the supernatants were analyzed by LC/MS/MS to obtain TEC-1 concentrations of the plasma and brain.
# [4] = target: T2, human acetylcholinesterase (Homo sapiens, UniProt P22303); assay: Eurofins selectivity panel: acetylcholinesterase; assay type: biochemical
# T2 construct: purchased Eurofins Inc
# [5] = tested on: 106 representative proteins that are drug discovery targets; assay: Eurofins selectivity panel of 106 representative proteins
# [6] = general in vitro toxicity and ADME tests; conditions: solubility, PAMPA, MDR1, stability, CYP inhibition, CYP induction/PXR, hERG, cytotoxicity, umu, Ames, in vitro micronucleus test
# [7] = pharmacokinetic study in neonatal/juvenile FVB mice, intraperitoneal; assay type: in vivo; conditions: for Kp / Cmax / MRT / Tmax: male, mouse, ip; for Kp: brain/plasma, read-out: Kp (AUC0–120h ratio)
# Experimental: TEC-1 was intraperitoneally administered at doses of 0.2, 0.6, and 2 mg/kg (suspended in saline/0.9% NaCl solution) to male FVB mice (10 days old, 3 mice per a time point). After administration, brain samples and blood samples with heparinized capillary tubes from heart were collected. Blood samples were centrifuged to obtain the plasma fraction. Brain samples were homogenized in 20% (w/v) saline. The samples were deproteinized with acetonitrile followed by centrifugation and the supernatants were analyzed by LC/MS/MS to obtain TEC-1 concentrations of the plasma and brain.
# [8] = brain, 2 mg/kg oral single, adult FVB mice
# [9] = brain, 6 mg/kg oral single, adult FVB mice
# [10] = brain, 20 mg/kg oral single, adult FVB mice
# [11] = plasma, 2 mg/kg oral single, adult FVB mice
# [12] = plasma, 6 mg/kg oral single, adult FVB mice
# [13] = plasma, 20 mg/kg oral single, adult FVB mice
# [14] = brain, 0.2 mg/kg i.p. single, juvenile FVB mice
# [15] = brain, 0.6 mg/kg i.p. single, juvenile FVB mice
# [16] = brain, 2 mg/kg i.p. single, juvenile FVB mice
# [17] = plasma, 0.2 mg/kg i.p. single, juvenile FVB mice
# [18] = plasma, 0.6 mg/kg i.p. single, juvenile FVB mice
# [19] = plasma, 2 mg/kg i.p. single, juvenile FVB mice
# T2 sequence (P22303 32-614): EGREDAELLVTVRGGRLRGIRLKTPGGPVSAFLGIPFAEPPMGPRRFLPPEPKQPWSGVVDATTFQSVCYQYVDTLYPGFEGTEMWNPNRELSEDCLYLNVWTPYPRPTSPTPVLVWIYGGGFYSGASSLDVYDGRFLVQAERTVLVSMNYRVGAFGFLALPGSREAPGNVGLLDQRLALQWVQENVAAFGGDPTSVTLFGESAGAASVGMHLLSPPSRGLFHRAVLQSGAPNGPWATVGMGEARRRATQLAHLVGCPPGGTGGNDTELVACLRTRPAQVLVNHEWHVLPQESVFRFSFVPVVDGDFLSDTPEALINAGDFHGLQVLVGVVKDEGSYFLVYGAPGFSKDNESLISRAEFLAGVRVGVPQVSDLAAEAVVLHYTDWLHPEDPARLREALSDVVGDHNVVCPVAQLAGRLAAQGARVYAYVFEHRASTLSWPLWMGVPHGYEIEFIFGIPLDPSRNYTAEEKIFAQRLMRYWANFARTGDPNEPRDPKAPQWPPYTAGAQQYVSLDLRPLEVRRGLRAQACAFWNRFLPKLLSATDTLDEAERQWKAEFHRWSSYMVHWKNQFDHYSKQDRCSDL
# T1 sequence (Q02294 whole entry): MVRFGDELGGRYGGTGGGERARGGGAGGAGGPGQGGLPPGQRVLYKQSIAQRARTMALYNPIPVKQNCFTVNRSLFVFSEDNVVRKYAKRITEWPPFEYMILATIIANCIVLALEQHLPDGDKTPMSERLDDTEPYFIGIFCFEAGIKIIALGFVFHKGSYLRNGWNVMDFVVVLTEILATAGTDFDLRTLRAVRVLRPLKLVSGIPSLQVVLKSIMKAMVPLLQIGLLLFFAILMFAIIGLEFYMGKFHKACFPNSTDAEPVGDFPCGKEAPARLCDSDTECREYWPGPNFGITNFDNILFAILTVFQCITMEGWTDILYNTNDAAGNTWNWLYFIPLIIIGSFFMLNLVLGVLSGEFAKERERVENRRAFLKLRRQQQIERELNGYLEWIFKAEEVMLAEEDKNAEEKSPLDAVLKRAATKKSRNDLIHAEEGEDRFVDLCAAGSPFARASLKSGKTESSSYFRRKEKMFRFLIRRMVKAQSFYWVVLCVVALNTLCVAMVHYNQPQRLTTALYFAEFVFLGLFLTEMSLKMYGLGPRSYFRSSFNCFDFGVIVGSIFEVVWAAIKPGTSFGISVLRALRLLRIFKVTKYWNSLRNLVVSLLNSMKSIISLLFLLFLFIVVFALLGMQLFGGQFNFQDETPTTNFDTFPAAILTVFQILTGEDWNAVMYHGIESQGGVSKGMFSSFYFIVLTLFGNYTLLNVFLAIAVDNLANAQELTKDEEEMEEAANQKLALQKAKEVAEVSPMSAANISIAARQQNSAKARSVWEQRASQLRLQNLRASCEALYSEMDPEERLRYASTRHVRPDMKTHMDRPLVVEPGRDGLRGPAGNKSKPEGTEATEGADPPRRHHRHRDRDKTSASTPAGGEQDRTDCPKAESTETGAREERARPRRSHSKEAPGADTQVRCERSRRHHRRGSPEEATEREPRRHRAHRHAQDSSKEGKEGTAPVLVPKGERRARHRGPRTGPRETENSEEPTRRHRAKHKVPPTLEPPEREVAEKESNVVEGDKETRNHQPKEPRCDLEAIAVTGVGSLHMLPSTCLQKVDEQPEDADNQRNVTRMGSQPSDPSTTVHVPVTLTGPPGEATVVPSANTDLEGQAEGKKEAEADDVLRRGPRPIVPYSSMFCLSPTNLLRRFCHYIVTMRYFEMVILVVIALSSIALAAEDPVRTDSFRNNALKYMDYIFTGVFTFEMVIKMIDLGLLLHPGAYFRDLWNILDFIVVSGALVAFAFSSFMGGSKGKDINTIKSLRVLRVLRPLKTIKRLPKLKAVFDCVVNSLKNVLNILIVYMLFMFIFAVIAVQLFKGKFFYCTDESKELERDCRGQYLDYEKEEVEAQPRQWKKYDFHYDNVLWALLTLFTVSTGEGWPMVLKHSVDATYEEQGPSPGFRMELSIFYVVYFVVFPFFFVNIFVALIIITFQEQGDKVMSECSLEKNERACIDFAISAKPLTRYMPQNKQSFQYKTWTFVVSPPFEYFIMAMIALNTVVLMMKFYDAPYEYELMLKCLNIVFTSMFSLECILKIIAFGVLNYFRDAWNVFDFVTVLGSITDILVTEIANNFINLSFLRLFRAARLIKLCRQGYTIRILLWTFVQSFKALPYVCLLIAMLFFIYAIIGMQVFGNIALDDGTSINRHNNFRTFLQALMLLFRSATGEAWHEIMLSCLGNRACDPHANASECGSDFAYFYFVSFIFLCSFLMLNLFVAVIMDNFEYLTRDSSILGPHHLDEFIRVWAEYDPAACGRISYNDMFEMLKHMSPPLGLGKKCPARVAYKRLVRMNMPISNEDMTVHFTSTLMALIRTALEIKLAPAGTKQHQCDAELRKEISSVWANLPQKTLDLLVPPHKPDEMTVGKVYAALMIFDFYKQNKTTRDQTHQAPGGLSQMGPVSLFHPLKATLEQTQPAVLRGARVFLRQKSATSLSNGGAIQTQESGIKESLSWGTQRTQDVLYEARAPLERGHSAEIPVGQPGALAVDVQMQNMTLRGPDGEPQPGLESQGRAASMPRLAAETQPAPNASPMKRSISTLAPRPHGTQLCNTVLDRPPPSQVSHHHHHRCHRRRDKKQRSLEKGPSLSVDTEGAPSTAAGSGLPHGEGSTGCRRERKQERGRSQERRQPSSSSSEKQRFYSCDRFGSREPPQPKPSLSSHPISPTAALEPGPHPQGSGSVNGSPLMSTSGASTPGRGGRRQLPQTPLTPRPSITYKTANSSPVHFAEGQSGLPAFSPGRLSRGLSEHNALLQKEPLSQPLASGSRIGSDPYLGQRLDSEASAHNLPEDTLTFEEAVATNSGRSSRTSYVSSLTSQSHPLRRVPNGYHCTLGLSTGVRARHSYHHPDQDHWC
# T1 sequence (P54287 whole entry partner): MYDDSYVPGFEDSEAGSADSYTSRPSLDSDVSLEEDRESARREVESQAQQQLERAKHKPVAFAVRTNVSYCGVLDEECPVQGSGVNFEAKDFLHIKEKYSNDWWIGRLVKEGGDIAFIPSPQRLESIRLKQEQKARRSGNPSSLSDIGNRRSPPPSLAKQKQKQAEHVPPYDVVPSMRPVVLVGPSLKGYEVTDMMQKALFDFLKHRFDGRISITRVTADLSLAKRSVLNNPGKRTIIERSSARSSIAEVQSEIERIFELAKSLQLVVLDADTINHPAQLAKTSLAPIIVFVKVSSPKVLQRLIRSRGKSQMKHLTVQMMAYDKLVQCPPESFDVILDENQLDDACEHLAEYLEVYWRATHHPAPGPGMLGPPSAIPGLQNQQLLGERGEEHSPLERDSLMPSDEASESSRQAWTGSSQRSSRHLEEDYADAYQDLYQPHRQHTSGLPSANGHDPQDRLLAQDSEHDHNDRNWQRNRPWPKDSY
# T1 sequence (P54290 25-944 partner limits assumed): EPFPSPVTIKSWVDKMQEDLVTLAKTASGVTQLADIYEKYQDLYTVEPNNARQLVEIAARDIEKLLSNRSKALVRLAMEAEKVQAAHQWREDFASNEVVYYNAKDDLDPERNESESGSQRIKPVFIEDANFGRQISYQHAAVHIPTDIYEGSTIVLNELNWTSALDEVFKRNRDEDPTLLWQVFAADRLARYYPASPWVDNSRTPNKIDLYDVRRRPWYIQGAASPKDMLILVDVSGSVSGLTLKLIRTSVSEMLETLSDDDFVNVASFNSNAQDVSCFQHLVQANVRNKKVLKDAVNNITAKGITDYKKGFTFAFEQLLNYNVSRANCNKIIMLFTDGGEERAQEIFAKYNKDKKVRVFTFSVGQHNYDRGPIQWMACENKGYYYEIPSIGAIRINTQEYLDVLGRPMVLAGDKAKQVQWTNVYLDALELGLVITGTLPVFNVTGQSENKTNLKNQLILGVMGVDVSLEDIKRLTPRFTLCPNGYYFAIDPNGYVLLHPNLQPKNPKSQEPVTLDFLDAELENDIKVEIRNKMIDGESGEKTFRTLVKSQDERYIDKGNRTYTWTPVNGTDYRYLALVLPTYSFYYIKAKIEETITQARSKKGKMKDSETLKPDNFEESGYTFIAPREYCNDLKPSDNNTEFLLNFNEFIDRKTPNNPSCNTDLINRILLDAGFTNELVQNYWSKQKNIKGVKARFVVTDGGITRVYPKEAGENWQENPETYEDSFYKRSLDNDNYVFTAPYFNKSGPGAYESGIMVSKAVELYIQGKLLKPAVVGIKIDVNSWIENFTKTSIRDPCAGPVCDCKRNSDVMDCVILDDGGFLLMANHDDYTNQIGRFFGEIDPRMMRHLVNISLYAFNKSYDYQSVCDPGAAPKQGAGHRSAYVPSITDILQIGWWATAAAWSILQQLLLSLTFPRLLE
# T1 sequence (P54290 945-1091 partner limits assumed): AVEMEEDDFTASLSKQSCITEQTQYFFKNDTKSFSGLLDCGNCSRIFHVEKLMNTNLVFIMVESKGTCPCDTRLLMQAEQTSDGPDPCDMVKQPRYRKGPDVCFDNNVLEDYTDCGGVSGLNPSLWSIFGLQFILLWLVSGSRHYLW
compound,measurement,setting,value
"Cc1cn2nc(-c3nc4ccc(N5CCN(C)CC5)cc4c(=O)[nH]3)cc2c(C)n1 [TEC-1, 2-(4,6-dimethylpyrazolo[1,5-a]pyrazin-2-yl)-6-(4-methylpiperazin-1-yl)quinazolin-4(3H)-one]",effect on the activity of nusinersen,[1]; TEC-1 at 1 and 3 µM with nusinersen 100 nM,significantly enhanced the effects of nusinersen
same,effect on the activity of nusinersen,[1]; low concentrations of TEC-1 with nusinersen 100 nM,did not inhibit the effects of nusinersen
same,IC50,[2],8.8 µM
same,AUC0–24 h,[3]; [8],2234.1 ng･h/g
same,AUC0–120 h,[3]; [8],2433.7 ng･h/g
same,AUC0–24 h,[3]; [9],3956.7 ng･h/g
same,AUC0–120 h,[3]; [9],8011.1 ng･h/g
same,AUC0–24 h,[3]; [10],6322.1 ng･h/g
same,AUC0–120 h,[3]; [10],29429.3 ng･h/g
same,Kp,"[3]; brain and plasma, other: intraperitoneal (juvenile) and oral (adult), juvenile (intraperitoneal) and adult (oral) FVB mice, read-out: Kp values (ratio of the compound in the brain and plasma)",> 1
same,Kp,"[3]; brain/plasma, 2 mg/kg oral single, adult FVB mice, read-out: Kp (AUC0–120h ratio)",1.2
same,Kp,"[3]; brain/plasma, 6 mg/kg oral single, adult FVB mice, read-out: Kp (AUC0–120h ratio)",1.2
same,Kp,"[3]; brain/plasma, 20 mg/kg oral single, adult FVB mice, read-out: Kp (AUC0–120h ratio)",1.8
same,Cmax,[3]; [8],168 ng/g
same,MRT,[3]; [8],10.7 h
same,Tmax,[3]; [8],1 h
same,Cmax,[3]; [9],195 ng/g
same,MRT,[3]; [9],29.5 h
same,Tmax,[3]; [9],7 h
same,Cmax,[3]; [10],360 ng/g
same,MRT,[3]; [10],54.6 h
same,Tmax,[3]; [10],32 h
same,MRT,[3]; [11],10.7 h
same,Tmax,[3]; [11],3 h
same,Cmax,"[3]; plasma, 2 mg/kg oral single, adult FVB mice, mean, n = 3",136 ng/mL
same,Cmax,[3]; [12],157 ng/mL
same,MRT,[3]; [12],33.1 h
same,Tmax,[3]; [12],3 h
same,Cmax,[3]; [13],222 ng/mL
same,MRT,[3]; [13],48.5 h
same,Tmax,[3]; [13],16 h
same,AUC0–24 h,[3]; [11],1906.7 ng･h/mL
same,AUC0–120 h,[3]; [11],2095.9 ng･h/mL
same,AUC0–24 h,[3]; [12],3100.3 ng･h/mL
same,AUC0–120 h,[3]; [12],6647.9 ng･h/mL
same,AUC0–24 h,[3]; [13],4950.5 ng･h/mL
same,AUC0–120 h,[3]; [13],16350.5 ng･h/mL
same,IC50,[4],1.19 µM
same,effect on biological activity of 106 representative proteins,[5],weakly affected the biological activity of only two targets
same,general in vitro toxicity and ADME profile,[6],good profiles
same,AUC0–24 h,[7]; [14],69.7 ng･h/g
same,AUC0–120 h,[7]; [14],87.7 ng･h/g
same,AUC0–24 h,[7]; [15],600.3 ng･h/g
same,AUC0–120 h,[7]; [15],716.7 ng･h/g
same,AUC0–24 h,[7]; [16],3547.9 ng･h/g
same,AUC0–120 h,[7]; [16],8261.5 ng･h/g
same,Kp,"[7]; 0.2 mg/kg i.p. single, juvenile FVB mice",5.8
same,Kp,"[7]; 0.6 mg/kg i.p. single, juvenile FVB mice",4.8
same,Kp,"[7]; 2 mg/kg i.p. single, juvenile FVB mice",4.5
same,Cmax,[7]; [14],10.5 ng/g
same,MRT,[7]; [14],11.2 h
same,Tmax,[7]; [14],0.5 h
same,Cmax,[7]; [15],63.2 ng/g
same,MRT,[7]; [15],11.8 h
same,Tmax,[7]; [15],1 h
same,Cmax,[7]; [16],219 ng/g
same,MRT,[7]; [16],35.8 h
same,Tmax,[7]; [16],1 h
same,Cmax,"[7]; plasma, 0.2 mg/kg i.p. single, juvenile (10-day-old) FVB mice, n = 3, pool",2.2 ng/mL
same,MRT,[7]; [17],7.21 h
same,Tmax,[7]; [17],0.5 h
same,Cmax,[7]; [18],11.3 ng/mL
same,MRT,[7]; [18],10.7 h
same,Tmax,[7]; [18],0.5 h
same,Cmax,[7]; [19],42 ng/mL
same,MRT,[7]; [19],40.4 h
same,Tmax,[7]; [19],3 h
same,AUC0–24 h,[7]; [17],15.2 ng･h/mL
same,AUC0–120 h,[7]; [17],15.2 ng･h/mL
same,AUC0–24 h,[7]; [18],129.9 ng･h/mL
same,AUC0–120 h,[7]; [18],149.1 ng･h/mL
same,AUC0–24 h,[7]; [19],718.6 ng･h/mL
same,AUC0–120 h,[7]; [19],1829.8 ng･h/mL
